Experimental data: patent US10669537B2, “Mutagenizing intracellular nucleic acids” (priority 2016, dated 2020)
Like-named read-outs stand apart in the source and are kept apart here.

Columns and labels:
[1] = tested on: Saccharomyces cerevisiae BY4741 URA3+; assay: 5-FOA resistance frequency after URA3 mutagenesis; assay type: cell-based; settings: one cycle of URA3 soft-randomized oligo pool mutagenesis; 5-FOA SD agar plates
Description: To perform mutagenesis without necessitating additional genomic modifications and thus keeping the flexibility of the prokaryotic, pORTMAGE-based approach, the wild-type yeast homologous recombination system was employed to set-up overlapping, soft-randomized oligo pool-mediated mutagenesis. As the target, the endogenous URA3 gene in Saccharomyces cerevisiae BY4741 URA3+(SEQ ID NO:221), encoding orotidine 5-phosphate decarboxylase was chosen. Loss-of-function URA3 mutants can be readily selected based on their 5-Fluoroorotic Acid (5-FOA)-resistant phenotype on 5-FOA containing agar plates (DiCarlo et al. 2013). Therefore, mutagenesis was assayed as the fraction of resistant cells towards 5-FOA in diversified cell populations compared with the frequency of an unmutagenized control. Using 11 overlapping spiked oligo pools (SEQ ID NO:200-SEQ ID NO:210), a single overlapping, soft-randomized oligo pool-mediated mutagenesis cycle was performed.
Specifically, overlapping, soft-randomized oligos for S. cerevisiae URA3 were designed to target the non-coding strand of URA3 (YEL021W, SEQ ID NO:221). Spiked oligonucleotides were synthesized as described in Example 1. Yeast-mutagenesis was performed by delivering oligonucleotides to S. cerevisiae BY4741 URA3+ cells by electroporation. […] As the next step, URA3 mutagenesis was assessed by measuring 5-fluoroorotic acid (5-FOA) resistance frequency. […]

E. coli K-12 MG1655 [2] = settings: L28R
Protocol: As a measure of the effect of each individual genotype, relative IC75 values for each of the corresponding mutants were determined and compared to the IC75 of the wild-type.

[3] = tested on: parental Escherichia coli K-12 MG 1655
Protocol: Subsequently, the genotype of around 1000 resistant mutants was determined by High-Throughput (HT) SMRT sequencing.

E. coli K-12 MG1655 [4] = assay type: cell-based, Escherichia coli; settings: ciprofloxacin two-fold higher than wild-type MIC, LB agar
Protocol: All four constituents were mutagenized along the full lengths of their corresponding protein-coding DNA regions in their native genomic context. Accordingly, a single round of rMAGE mutagenesis was performed in E. coli K-12 MG1655, using SEQ ID NO:37-SEQ ID NO:167.
However, ciprofloxacin also has lower binding affinity to the homologous DNA topoisomerase IV complex (Khodursky, Zechiedrich, and Cozzarelli 1995). Therefore, mutagenesis at the target sites was assayed by a ciprofloxacin frequency-of-resistance assay.

O=C(O)c1[nH]c(=O)[nH]c(=O)c1F [5-FOA, 5-Fluoroorotic Acid]
upregulation of the fraction of 5-FOA resistant cells compared to background level [1]: 77 fold

COc1cc(Cc2cnc(N)nc2N)cc(OC)c1OC [Trimethoprim, trimethoprim]
Trimethoprim IC75 value (E. coli K-12 MG1655 [2]; strain E. coli MG1655 1, folA C-58T, A26T, P39R): 1162 µg/mL | Trimethoprim IC75 value (E. coli K-12 MG1655 [2]; strain E. coli MG1655 2, folA C-58T, A26T, P39R): 1162 µg/mL | Trimethoprim IC75 value (E. coli K-12 MG1655 [2]; strain E. coli MG1655 3, folA C-58T, A26T, P39R): 1346 µg/mL | Trimethoprim IC75 value (E. coli K-12 MG1655 [2]; strain E. coli MG1655 4, folA C-58T, A26T, P39R): 1254 µg/mL | Trimethoprim IC75 value (E. coli K-12 MG1655 [2]; strain E. coli MG1655 5, folA C-58T, A26T, P39R): 1162 µg/mL | Trimethoprim IC75 value (E. coli K-12 MG1655 [2]; strain E. coli MG1655 6, folA C-58T, A26T, P39R): 1254 µg/mL | Trimethoprim IC75 value (E. coli K-12 MG1655 [2]; strain E. coli MG1655 7, folA C-58T): 448 µg/mL | Trimethoprim IC75 value (E. coli K-12 MG1655 [2]; strain E. coli MG1655 8, folA C-58T, T-74A, N147D): 448 µg/mL | Trimethoprim IC75 value (E. coli K-12 MG1655 [2]; strain E. coli MG1655 9, folA C-58T): 610 µg/mL | Trimethoprim IC75 value (E. coli K-12 MG1655 [2]; strain E. coli MG1655 10, folA C-58T): 610 µg/mL | Trimethoprim IC75 value (E. coli K-12 MG1655 [2]; strain E. coli MG1655 11, folA C-58T): 518 µg/mL | Trimethoprim IC75 value (E. coli K-12 MG1655 [2]; strain E. coli MG1655 12, folA C-43T, C-58T, A26D, H45R): 794 µg/mL | growth on trimethoprim solid media [3]: cannot grow

O=C(O)c1cn(C2CC2)c2cc(N3CCNCC3)c(F)cc2c1=O [ciprofloxacin]
frequency of ciprofloxacin resistant variants (E. coli K-12 MG1655 [4]; cell population mutagenized at gyrA, gyrB, parC, parE): 10^−4 | frequency of ciprofloxacin resistant variants (E. coli K-12 MG1655 [4]; non-mutagenised control cell populations): 1.83*10^−7
